From ChEMBL document CHEMBL1212880, “Discovery of (2,4-dihydroxy-5-isopropylphenyl)-[5-(4-methylpiperazin-1-ylmethyl)-1,3-dihydroisoindol-2-yl]methanone (AT13387), a novel inhibitor of the molecular chaperone Hsp90 by fragment based drug design” (J Med Chem, 2010)
Active and inactive are the calls of the source. No cut-off for these calls is given here.

Key:
HCT-116 [1] = assay: Cytotoxicity against human HCT116 cells at 100 uM by Alamar blue assay; format: functional
HCT-116 [2] = assay: Cytotoxicity against human HCT116 cells at 30 uM by Alamar blue assay; format: functional, cell-based
[3] = Intrinsic clearance in mouse liver S9 fraction; format: ADME, subcellular; conditions: for CL: s9
Cytochrome P450 2C19 = Cytochrome P450 2C19 (Homo sapiens, UniProt P33261); assay: Binding affinity to CYP2C19; format: ADME
Cytochrome P450 2C9 = Cytochrome P450 2C9 (Homo sapiens, UniProt P11712); assay: Binding affinity to CYP2C9; format: ADME
hERG (KCNH2) [4] = target: T1, hERG (KCNH2) (Homo sapiens, UniProt Q12809); assay: in vitro; conditions: HEK293 cells expressing hERG
Description: Inhibition of human ERG expressed in HEK293 cells at 30 uM by patch clamp assay

hERG (KCNH2) [5] = target: T1, hERG (KCNH2); assay: in vitro; conditions: HEK293 cells expressing hERG; remark: listed apart in the source
Description: Inhibition of human ERG expressed in HEK293 cells at 3 uM by patch clamp assay

physchem = conditions: buffer, pH 7.4
[6] = Dissociation constant, pKa of the compound; format: physicochemical
HCT-116 [7] = assay: Antitumor activity against human HCT116 cells xenografted in BALB/c mouse assessed as inhibition of tumor growth at 80 mg/kg, ip qd for 8 days measured on day 10; format: functional; conditions: HCT-116, ip, route intraperitoneal
HCT-116 [8] = assay: Antitumor activity against human HCT116 cells xenografted in BALB/c mouse assessed as inhibition of tumor growth at 80 mg/kg, ip qd for 8 days measured on day 10 relative to control; format: functional; conditions: HCT-116, ip, route intraperitoneal
HCT-116 [9] = assay: Cytotoxicity against human HCT116 cells at 10 uM by Alamar blue assay; format: functional
[10] = Clearance in BALB/c mouse plasma at 10 mg/kg, iv; format: ADME, organism-based; design: dose 10 mg/kg, route intravenous
[11] = Drug level in human HCT116 cells xenografted nude BALB/c mouse tumor at 40 mg/kg, iv after 24 hrs; format: ADME, organism-based, Neoplasm, HCT-116; design: dose 40 mg/kg, route intravenous; conditions: read-out: Drug uptake
HCT-116 [12] = assay: Antitumor activity against human HCT116 cells xenografted in BALB/c mouse assessed as delay in tumor growth at 80 mg/kg, ip qd for 8 days; format: functional; conditions: route intraperitoneal
CYP3A4 = CYP3A4 (Homo sapiens, UniProt P08684); assay: Inhibition of CYP3A4 at 10 uM; format: ADME
HCT-116 [13] = assay: Antitumor activity against human HCT116 cells xenografted in BALB/c mouse assessed as inhibition of tumor growth at 80 mg/kg, ip qd for 8 days measured on day 12; format: functional; conditions: HCT-116, ip, route intraperitoneal
[14] = Drug level in human HCT116 cells xenografted nude BALB/c mouse tumor at 80 mg/kg, iv after 24 hrs; format: ADME, organism-based, Neoplasm, HCT-116; design: dose 80 mg/kg, route intravenous; conditions: read-out: Drug uptake
HCT-116 [15] = assay: Antitumor activity against human HCT116 cells xenografted in BALB/c mouse assessed as inhibition of tumor growth at 80 mg/kg, ip qd for 8 days measured on day 12 relative to control; format: functional; conditions: HCT-116, ip, route intraperitoneal

T1 sequence (Q12809 whole entry): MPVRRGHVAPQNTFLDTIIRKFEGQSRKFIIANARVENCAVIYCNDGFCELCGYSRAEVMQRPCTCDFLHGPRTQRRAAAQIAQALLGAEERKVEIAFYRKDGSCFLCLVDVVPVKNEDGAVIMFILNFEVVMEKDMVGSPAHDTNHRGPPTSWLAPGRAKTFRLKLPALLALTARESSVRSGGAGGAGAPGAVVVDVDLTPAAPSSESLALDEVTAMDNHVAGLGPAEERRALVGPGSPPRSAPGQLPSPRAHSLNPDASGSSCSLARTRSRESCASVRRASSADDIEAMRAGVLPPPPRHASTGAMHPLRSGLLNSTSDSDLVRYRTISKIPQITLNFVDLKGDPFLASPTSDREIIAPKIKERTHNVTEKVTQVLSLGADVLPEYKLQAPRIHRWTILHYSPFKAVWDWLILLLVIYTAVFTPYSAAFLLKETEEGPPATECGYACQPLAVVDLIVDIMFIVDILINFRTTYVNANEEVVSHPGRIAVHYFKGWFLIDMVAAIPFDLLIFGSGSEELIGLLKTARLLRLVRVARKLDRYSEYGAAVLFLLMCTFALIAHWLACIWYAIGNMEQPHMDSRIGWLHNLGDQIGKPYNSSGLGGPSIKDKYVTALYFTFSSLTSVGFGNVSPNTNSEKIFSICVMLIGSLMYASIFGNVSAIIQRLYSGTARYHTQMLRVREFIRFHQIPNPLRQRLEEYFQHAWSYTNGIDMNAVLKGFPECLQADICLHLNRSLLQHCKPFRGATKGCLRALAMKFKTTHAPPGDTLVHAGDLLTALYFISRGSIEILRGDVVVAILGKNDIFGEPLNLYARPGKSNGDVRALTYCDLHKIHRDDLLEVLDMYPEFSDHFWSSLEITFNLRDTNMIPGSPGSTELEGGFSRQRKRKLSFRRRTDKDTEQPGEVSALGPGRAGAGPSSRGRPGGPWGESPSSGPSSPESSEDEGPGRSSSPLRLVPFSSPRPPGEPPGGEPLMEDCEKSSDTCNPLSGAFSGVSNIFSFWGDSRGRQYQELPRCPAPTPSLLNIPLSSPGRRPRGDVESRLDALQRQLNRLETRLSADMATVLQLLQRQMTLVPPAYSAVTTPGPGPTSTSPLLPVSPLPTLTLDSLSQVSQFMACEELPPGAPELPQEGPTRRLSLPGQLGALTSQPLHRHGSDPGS
Sequence of CYP3A4 (P08684 whole entry): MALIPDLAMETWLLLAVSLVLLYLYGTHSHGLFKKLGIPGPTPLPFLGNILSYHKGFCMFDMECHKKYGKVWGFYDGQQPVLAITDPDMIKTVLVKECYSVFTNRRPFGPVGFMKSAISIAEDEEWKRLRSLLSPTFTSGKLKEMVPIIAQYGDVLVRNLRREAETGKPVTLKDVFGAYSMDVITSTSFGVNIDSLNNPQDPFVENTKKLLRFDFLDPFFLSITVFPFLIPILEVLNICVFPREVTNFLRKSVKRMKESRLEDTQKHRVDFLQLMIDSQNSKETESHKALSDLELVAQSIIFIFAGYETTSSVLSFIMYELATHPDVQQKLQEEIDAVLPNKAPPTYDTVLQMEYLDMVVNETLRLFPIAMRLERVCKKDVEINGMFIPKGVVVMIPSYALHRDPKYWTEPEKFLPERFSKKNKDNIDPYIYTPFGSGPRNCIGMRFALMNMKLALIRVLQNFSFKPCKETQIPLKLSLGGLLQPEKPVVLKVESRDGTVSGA
Sequence of Cytochrome P450 2C9 (P11712 whole entry): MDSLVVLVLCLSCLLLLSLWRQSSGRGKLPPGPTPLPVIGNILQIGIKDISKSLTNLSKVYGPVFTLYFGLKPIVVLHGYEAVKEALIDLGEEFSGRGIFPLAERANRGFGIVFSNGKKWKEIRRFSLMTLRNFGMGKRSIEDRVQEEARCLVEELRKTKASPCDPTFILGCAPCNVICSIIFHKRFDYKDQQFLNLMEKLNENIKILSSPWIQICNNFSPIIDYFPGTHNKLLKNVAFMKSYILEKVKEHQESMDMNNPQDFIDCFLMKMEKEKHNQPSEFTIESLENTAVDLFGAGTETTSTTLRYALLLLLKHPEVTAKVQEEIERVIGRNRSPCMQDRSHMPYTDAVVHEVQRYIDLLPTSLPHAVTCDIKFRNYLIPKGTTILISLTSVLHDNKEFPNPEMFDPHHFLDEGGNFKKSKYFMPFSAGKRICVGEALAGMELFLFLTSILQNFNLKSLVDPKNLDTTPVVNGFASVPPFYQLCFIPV
Sequence of Cytochrome P450 2C19 (P33261 whole entry): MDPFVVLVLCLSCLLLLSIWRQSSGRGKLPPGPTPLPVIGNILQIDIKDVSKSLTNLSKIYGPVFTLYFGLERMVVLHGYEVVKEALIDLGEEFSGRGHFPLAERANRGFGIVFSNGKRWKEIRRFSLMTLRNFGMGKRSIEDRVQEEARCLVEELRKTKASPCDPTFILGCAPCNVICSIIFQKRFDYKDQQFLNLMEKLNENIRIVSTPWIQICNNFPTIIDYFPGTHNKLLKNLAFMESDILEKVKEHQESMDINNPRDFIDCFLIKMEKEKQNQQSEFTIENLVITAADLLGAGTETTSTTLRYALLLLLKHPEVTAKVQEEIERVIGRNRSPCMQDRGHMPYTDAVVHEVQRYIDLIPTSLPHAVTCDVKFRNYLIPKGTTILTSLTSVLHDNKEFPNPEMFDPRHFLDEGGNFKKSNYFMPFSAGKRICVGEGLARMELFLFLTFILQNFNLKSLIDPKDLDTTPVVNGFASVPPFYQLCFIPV

Structure (SMILES)	logD (physchem)	pKa [6]	inhibition at 30 µM (hERG (KCNH2) [4])	inhibition at 3 µM (hERG (KCNH2) [5])	also measured
CC(C)c1cc(C(=O)N2Cc3ccccc3C2)c(O)c(F)c1O	–	–	–	–	Activity (HCT-116 [1]): 60%; Activity (HCT-116 [2]): inactive; CL [3]: 4 µL/min/kg
CC(C)c1cc(C(=O)N2Cc3ccc(OCCN)cc3C2)c(O)cc1O	–	–	64%	11%	Activity (Cytochrome P450 2C19): Active; Activity (Cytochrome P450 2C9): Active
CC(C)c1cc(C(=O)N2Cc3ccc(CN4CCOCC4)cc3C2)c(O)cc1O	3.3	6.9	48%	25%	–
CC(C)c1cc(C(=O)N2Cc3ccc(OCCNC4CCCC4)cc3C2)c(O)cc1O	–	–	97%	60%	–
CC(C)c1cc(C(=O)N2Cc3ccc(N4CCN(C)CC4)cc3C2)c(O)cc1O	2.98	7.3	87%	41%	inhibition in vivo at 80 mg/kg (HCT-116 [7]): 81%; inhibition in vivo at 80 mg/kg (HCT-116 [8]): 19%; microsomal CLint ([3]; liver S9 fraction): 41 µL/min/mg; Activity (HCT-116 [9]): 0%; clearance [10]: 130 mL/min/kg; concentration at 24 h [11]: 6.5 µM; Activity (HCT-116 [12]): 10.5 days
CC(C)c1cc(C(=O)N2Cc3ccc(OCCNCC(C)(C)C)cc3C2)c(O)cc1O	–	–	92%	53%	–
CC(C)c1cc(C(=O)N2Cc3cccc(OCCN(C)C)c3C2)c(O)cc1O	–	–	93%	43%	inhibition at 10 µM (CYP3A4): < 50%
CC(C)c1c(O)cc(O)c(C(=O)N2Cc3ccccc3C2)c1F	–	–	–	–	Activity (HCT-116 [1]): 60%; Activity (HCT-116 [2]): Not toxic
CC(C)c1cc(C(=O)N2Cc3ccc(NC4CCNCC4)cc3C2)c(O)cc1O	0.7	10.2	20%	10%	–

Further lines, with some results ahead:

logD (physchem)	pKa [6]	Structure (SMILES)	inhibition at 30 µM (hERG (KCNH2) [4])	inhibition at 3 µM (hERG (KCNH2) [5])	also measured
–	4.3	CC(C)c1cc(C(=O)N2Cc3ccc(N4CCOCC4)cc3C2)c(O)cc1O	–	–	–
2.4	7.85	CC(C)c1cc(C(=O)N2Cc3ccc(OCCN(C)C)cc3C2)c(O)cc1O	87%	45%	inhibition at 10 µM (CYP3A4): 34%; inhibition in vivo at 80 mg/kg (HCT-116 [13]): 63%; concentration at 24 h [14]: 11 µM; CL [3]: 34 µL/min/kg; clearance [10]: 170 mL/min/kg; Activity (HCT-116 [12]): 11.4 days; inhibition in vivo at 80 mg/kg (HCT-116 [15]): 37%
